Experiments:
[1] = tested on: estrogen receptors; details: relative to 17p-estradiol 100; cited from earlier work
[2] = tested on: post-menopausal women; assay: Greene Score for menopausal symptoms, 3 month study (Example 4); format: in vivo, human; details: 15 mg or 60 mg daily for 3 months, compared to placebo control group
Method: A group of 36 post-menopausal women experiencing menopausal symptoms were treated with a composition containing either 15 mg daidzein or 60 mg daidzein administered on a daily basis for 3 months.

[3] = tested on: bone resorption; details: Tobe et al 1997; cited from earlier work
[4] = pharmacokinetic study of formononetin following oral administration; format: in vivo; details: blood; human, oral 9.3 mg formononetin; read-out: half life in the blood stream (converted)
Method: A pharmacokinetic study involving 16 human patients aged between 18 and 40 was conducted, to determine the pharmacokinetics of formononetin following oral administration. Each patient was orally administered 9.3 mg of formononetin with 200 ml of purified water and maintained a low isoflavone diet for one week prior to, and during the study. Blood samples were taken at 0, 0.25, 0.5, 0.75, 1.0, 1.5, 2.0, 2.5, 3, 4, 5, 6, 8, 10 and 12 and 24 hours post administration, and analysed for formononetin concentration.

[5] = tested on: post-menopausal women; assay: Greene Score for menopausal symptoms, 60 mg formononetin (Example 6); format: in vivo, human; details: 60 mg daily for three months, relative to a control group
Method: 15 post-menopausal women who are experiencing menopausal systems are each administered 60 mg formononetin daily for three months.

[6] = tested on: post-menopausal women; assay: bone density and bone turnover markers in high risk group for osteoporosis (Example 6); format: in vivo, human; details: 60 mg daily for three months, preliminary results
Method: A similar study involving 10 post-menopausal women in a high risk group for osteoporosis were also administered 60 mg formononetin daily for three months.

[7] = tested on: post-menopausal women; assay: six month double-blind placebo-controlled study of bone density and bone resorption markers (Example 7); format: in vivo, human; details: 25 mg, 50 mg or 75 mg daily, six months, with 1200 mg calcium per day
Method: The second study (double-blind, placebo-controlled) involved a six month study of the effects of phytoestrogen formononetin on bone resorption markers in twenty post-menopausal women. The aim of the study was to evaluate the efficacy of a defined daily quantity of isoflavone at 25 mg, 50 mg or 75 mg on bone resorption makers in post menopausal women and compare these to normal controls The effects of isoflavones on endometrial thickness, circulatory lipids and coagulation factors were also evaluated. Subjects were also given supplemental calcium in a dose of 1200 mg per day.

[8] = tested on: endometrial cancer cells; details: Markiewicz et al 1993; potentiated cancer cell growth; cited from earlier work

In the case of `COc1ccc(-c2coc3cc(O)cc(O)c3c2=O)cc1` [biochanin, reference compound], the relative estrogenicity [1] is given as 0.07.

In the case of `O=c1c(-c2ccc(O)cc2)coc2cc(O)ccc12` [daidzein, 7,4-dihydroxy isoflavone], the “Greene Score for menopausal symptoms” value [2] is listed as “significant decrease”, the relative estrogenicity [1] is listed as 0.09 and the “effect on bone resorption” value [3] is listed as “stimulates bone resorption”.

In the case of `COc1ccc(-c2coc3cc(O)ccc3c2=O)cc1` [formononetin], the half-life [4] was roughly 20 h, the “Greene Score for menopausal symptoms” value [2] was “significant decrease” and the “Greene Score for menopausal symptoms” value [5] was “significant decrease”. For the same compound, the “protection against osteoporosis by bone density and bone turnover markers” value [6] was “protection against osteoporosis”, the “bone density at three sites of the forearm” value [7] was “significant improvement in bone density” and the relative estrogenicity [1] was 0.01.

In the case of `O=c1c(-c2ccc(O)cc2)coc2cc(O)cc(O)c12` [genistein], the “estrogen effect on endometrial cancer cells” value [8] is listed as “exhibited an estrogen effect on endometrial cancer cells”.
